Test results taken from patent US20240287047A1, “PESTICIDALLY ACTIVE DIAZINE-AMIDE COMPOUNDS” (SYNGENTA CROP PROTECTION AG, priority 2021, published 2024).

Columns and labels:
Assay type in all cases: in vivo
Myzus persicae = assay: Example B3: Myzus persicae (green peach aphid) intrinsic activity; conditions: 120 h, test rate of 12 ppm, 5 days after infestation
Experimental: Test compounds prepared from 10′000 ppm DMSO stock solutions were applied by pipette into 24-well microtiter plates and mixed with sucrose solution. The plates were closed with a stretched Parafilm. A plastic stencil with 24 holes was placed onto the plate and infested pea seedlings were placed directly on the Parafilm. The infested plate was closed with a gel blotting paper and another plastic stencil and then turned upside down. The samples were assessed for mortality 5 days after infestation.

Plutella xylostella = assay: Example B4: Plutella xylostella (diamond back moth), artificial diet, eggs; conditions: Plutella xylostella, 192 h; application rate of 200 ppm; 8 days after infestation; read-out: control in at least one of the two categories (mortality or growth inhibition)
Experimental: 24-well microtiter plates with artificial diet were treated with aqueous test solutions prepared from 10′000 ppm DMSO stock solutions by pipetting. After drying, Plutella eggs were pipetted through a plastic stencil onto a gel blotting paper and the plate was closed with it. The samples were assessed for mortality and growth inhibition in comparison to untreated samples 8 days after infestation.

Chilo suppressalis = assay: Example B1: Chilo suppressalis (striped rice stemborer), artificial diet, L2 larvae; conditions: 144 h, application rate of 200 ppm, 6 days after infestation, read-out: control in at least one of the three categories (mortality, anti-feedant effect, or growth inhibition)
Experimental: 24-well microtiter plates with artificial diet were treated with aqueous test solutions prepared from 10,000 ppm DMSO stock solutions by pipetting. After drying, the plates were infested with L2 larvae (6-8 per well). The samples were assessed for mortality, anti-feeding effect, and growth inhibition in comparison to untreated samples 6 days after infestation. Control of Chilo suppressalis by a test sample is given when at least one of the categories mortality, anti-feedant effect, and growth inhibition is higher than the untreated sample.

Diabrotica balteata = assay: Example B2: Diabrotica balteata (corn root worm), maize sprouts, L2 larvae; conditions: for percent control (mortality or growth inhibition) at 200 ppm: Diabrotica balteata, 96 h, application rate of 200 ppm, 4 days after infestation, read-out: control in at least one of the two categories (mortality or growth inhibition)
Experimental: Maize sprouts placed onto an agar layer in 24-well microtiter plates were treated with aqueous test solutions prepared from 10,000 ppm DMSO stock solutions by spraying. After drying, the plates were infested with L2 larvae (6 to 10 per well). The samples were assessed for mortality and growth inhibition in comparison to untreated samples 4 days after infestation.

Spodoptera littoralis = assay: Example B5: Spodoptera littoralis (Egyptian cotton leaf worm), cotton leaf discs, L1 larvae; conditions: foliar, 72 h, application rate of 200 ppm, 3 days after infestation, read-out: control in at least one of the three categories (mortality, anti-feedant effect, or growth inhibition)
Experimental: Cotton leaf discs were placed onto agar in 24-well microtiter plates and sprayed with aqueous test solutions prepared from 10,000 ppm DMSO stock solutions. After drying the leaf discs were infested with five L1 larvae. The samples were assessed for mortality, anti-feeding effect, and growth inhibition in comparison to untreated samples 3 days after infestation. Control of Spodoptera littoralis by a test sample is given when at least one of the categories mortality, anti-feedant effect, and growth inhibition is higher than the untreated sample.

Structure (SMILES)	mortality at 12 ppm (Myzus persicae) [%]	percent control (mortality or growth inhibition) at 200 ppm (Plutella xylostella) [%]	percent control (mortality, anti-feedant effect or growth inhibition) at 200 ppm (Chilo suppressalis) [%]	percent control (mortality or growth inhibition) at 200 ppm (Diabrotica balteata) [%]	percent control (mortality, anti-feedant effect or growth inhibition) at 200 ppm (Spodoptera littoralis) [%]	mortality at 50 ppm (Diabrotica balteata; Concentration 50 ppm, Diabrotica balteata (Example B32)) [%]
C[C@H](NC(=O)c1cc(C(F)(F)F)cc(C(C)(C)C#N)c1)c1nccnc1-c1cnccn1 [Compound E7]	≥ 80	≥ 80	≥ 80	≥ 80	≥ 80	–
C[C@@H](c1nccnc1-c1cnccn1)N(C)C(=O)c1cc(C(F)(F)F)cc(C(C)(C)C#N)c1 [Compound E12, 3-(1-cyano-1-methyl-ethyl)-N-methyl-N-[(1S)-1-(3-pyrazin-2-ylpyrazin-2-yl)ethyl]-5-(trifluoromethyl)benzamide]	≥ 80	–	–	≥ 80	≥ 80	–
CC(NC(=O)c1cc(OC(F)F)cc(OC(F)F)c1)c1nccnc1-c1cnccn1 (centres unmarked) [Compound P2, 3,5-bis(difluoromethoxy)-N-[1-(3-pyrazin-2-ylpyrazin-2-yl)ethyl]benzamide]	≥ 80	≥ 80	≥ 80	≥ 80	≥ 80	–
CC(NC(=O)c1cc(C(F)(F)F)cc(C(C)(C)C#N)c1)c1nccnc1-c1cnccn1 (centres unmarked) [Compound P5, 3-(1-cyano-1-methyl-ethyl)-N-[1-(3-pyrazin-2-ylpyrazin-2-yl)ethyl]-5-(trifluoromethyl)benzamide]	–	≥ 80	≥ 80	≥ 80	≥ 80	–
CC(NC(=O)c1cc(Cl)cc(Cl)c1)c1nccnc1-c1cnccn1 (centres unmarked) [Compound P8, 3,5-dichloro-N-[1-(3-pyrazin-2-ylpyrazin-2-yl)ethyl]benzamide]	–	≥ 80	≥ 80	≥ 80	≥ 80	–
CC(NC(=O)c1cc(C(F)F)cc(C(F)(F)F)c1)c1nccnc1-c1cnccn1 (centres unmarked) [Compound P10, 3-(difluoromethyl)-N-[1-(3-pyrazin-2-ylpyrazin-2-yl)ethyl]-5-(trifluoromethyl)benzamide]	–	≥ 80	≥ 80	≥ 80	≥ 80	100
CC(NC(=O)c1cc(C2CC2)nc(C(F)(F)F)c1)c1nccnc1-c1cnccn1 (centres unmarked) [Compound P11, 2-cyclopropyl-N-[1-(3-pyrazin-2-ylpyrazin-2-yl)ethyl]-6-(trifluoromethyl)pyridine-4-carboxamide]	–	≥ 80	≥ 80	≥ 80	≥ 80	–
CC(NC(=O)c1cc(Cl)cc(I)c1)c1nccnc1-c1cnccn1 (centres unmarked) [Compound P13, 3-chloro-5-iodo-N-[1-(3-pyrazin-2-ylpyrazin-2-yl)ethyl]benzamide]	–	≥ 80	≥ 80	≥ 80	≥ 80	–
CC(NC(=O)c1cc(C(F)(F)F)cc(S(C)(=O)=O)c1)c1nccnc1-c1cnccn1 (centres unmarked) [Compound P16, 3-methylsulfonyl-N-[1-(3-pyrazin-2-ylpyrazin-2-yl)ethyl]-5-(trifluoromethyl)benzamide]	≥ 80	≥ 80	≥ 80	≥ 80	≥ 80	–
CC(NC(=O)c1cc(OC(F)F)cc(C(F)(F)F)c1)c1nccnc1-c1cnccn1 (centres unmarked) [Compound P20]	≥ 80	≥ 80	≥ 80	≥ 80	≥ 80	–
CC(NC(=O)c1cc(Br)cc(I)c1)c1nccnc1-c1cnccn1 (centres unmarked) [Compound P24, 3-bromo-5-iodo-N-[1-(3-pyrazin-2-ylpyrazin-2-yl)ethyl]benzamide]	–	≥ 80	≥ 80	≥ 80	≥ 80	–
CC(NC(=O)c1cc(Cl)nc(C2(C#N)CC2)c1)c1nccnc1-c1cnccn1 (centres unmarked) [Compound P27, 2-chloro-6-(1-cyanocyclopropyl)-N-[1-(3-pyrazin-2-ylpyrazin-2-yl)ethyl]pyridine-4-carboxamide]	–	≥ 80	≥ 80	≥ 80	≥ 80	–
CC(c1nccnc1-c1cnccn1)N(C)C(=O)c1cc(Cl)nc(C2(C#N)CC2)c1 (centres unmarked) [Compound P29, 2-chloro-6-(1-cyanocyclopropyl)-N-methyl-N-[1-(3-pyrazin-2-ylpyrazin-2-yl)ethyl]pyridine-4-carboxamide]	–	≥ 80	≥ 80	≥ 80	≥ 80	–
CC(NC(=O)c1cc(OC(F)F)cc(C2(C#N)CC2)c1)c1nccnc1-c1cnccn1 (centres unmarked) [Compound P32, 3-(1-cyanocyclopropyl)-5-(difluoromethoxy)-N-[1-(3-pyrazin-2-ylpyrazin-2-yl)ethyl]benzamide]	≥ 80	–	≥ 80	–	≥ 80	–
CC(NC(=O)c1cc(I)cc(C(F)(F)F)c1)c1nccnc1-c1cnc(Cl)cn1 (centres unmarked) [Compound P34, N-[1-[3-(5-chloropyrazin-2-yl)pyrazin-2-yl]ethyl]-3-iodo-5-(trifluoromethyl)benzamide]	–	≥ 80	≥ 80	≥ 80	≥ 80	–
CC(NC(=O)c1cc(C(F)(F)F)cc(S(C)(=O)=O)c1)c1nccnc1-c1cnc(Cl)cn1 (centres unmarked) [Compound P35, N-[1-[3-(5-chloropyrazin-2-yl)pyrazin-2-yl]ethyl]-3-methylsulfonyl-5-(trifluoromethyl)benzamide]	–	≥ 80	≥ 80	≥ 80	≥ 80	–
CC(NC(=O)c1cc(C(F)(F)F)cc(C(C)(C)C#N)c1)c1nccnc1-c1cnc(Cl)cn1 (centres unmarked) [Compound P37, N-[1-[3-(5-chloropyrazin-2-yl)pyrazin-2-yl]ethyl]-3-(1-cyano-1-methyl-ethyl)-5-(trifluoromethyl)benzamide]	–	≥ 80	≥ 80	≥ 80	≥ 80	–
